Earlier results, collected in publication PMC9851200, “Multiparameter phenotypic screening for endogenous TFEB and TFE3 translocation identifies novel chemical series modulating lysosome function” (Autophagy, 2022).
Like-named read-outs stand apart in the source and are kept apart here.

Tests used:
Set-up in all cases: method as in original PKIS2 published data
[1] = biological target: kinases (KINOMEscan panel) (Homo sapiens, UniProt P08922); conditions: kinase ROS1; Published KINOMEscan; ref original PKIS2 published data; cited from earlier work
[2] = biological target: T1, kinases (KINOMEscan panel) (Homo sapiens, UniProt Q09013); conditions: kinase DMPK; Published KINOMEscan; ref original PKIS2 published data; cited from earlier work
T1 sequence (Q09013 1-629): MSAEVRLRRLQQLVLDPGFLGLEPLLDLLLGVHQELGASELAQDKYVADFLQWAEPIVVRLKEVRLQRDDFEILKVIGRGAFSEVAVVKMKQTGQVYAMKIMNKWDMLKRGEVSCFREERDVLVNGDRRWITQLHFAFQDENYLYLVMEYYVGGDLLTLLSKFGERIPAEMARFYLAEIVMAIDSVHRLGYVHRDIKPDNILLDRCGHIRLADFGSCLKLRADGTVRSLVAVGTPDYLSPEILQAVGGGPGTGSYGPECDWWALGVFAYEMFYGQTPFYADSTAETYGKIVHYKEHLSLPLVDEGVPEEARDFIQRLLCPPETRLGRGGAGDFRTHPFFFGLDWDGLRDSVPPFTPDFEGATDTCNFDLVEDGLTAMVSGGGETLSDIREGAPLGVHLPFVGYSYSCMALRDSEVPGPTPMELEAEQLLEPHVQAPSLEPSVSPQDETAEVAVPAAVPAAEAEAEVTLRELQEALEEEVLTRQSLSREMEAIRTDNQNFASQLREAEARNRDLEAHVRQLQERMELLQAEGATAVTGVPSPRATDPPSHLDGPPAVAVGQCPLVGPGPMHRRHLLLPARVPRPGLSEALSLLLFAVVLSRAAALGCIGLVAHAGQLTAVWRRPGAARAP

[3] = biological target: kinases (KINOMEscan panel) (Homo sapiens, UniProt Q15746); conditions: kinase MYLK; Published KINOMEscan; ref original PKIS2 published data; cited from earlier work
[4] = biological target: T2, kinases (KINOMEscan panel) (Homo sapiens, UniProt Q6XUX3); conditions: DSTYK; Published KINOMEscan; ref original PKIS2 published data; cited from earlier work
T2 sequence (Q6XUX3 1-929): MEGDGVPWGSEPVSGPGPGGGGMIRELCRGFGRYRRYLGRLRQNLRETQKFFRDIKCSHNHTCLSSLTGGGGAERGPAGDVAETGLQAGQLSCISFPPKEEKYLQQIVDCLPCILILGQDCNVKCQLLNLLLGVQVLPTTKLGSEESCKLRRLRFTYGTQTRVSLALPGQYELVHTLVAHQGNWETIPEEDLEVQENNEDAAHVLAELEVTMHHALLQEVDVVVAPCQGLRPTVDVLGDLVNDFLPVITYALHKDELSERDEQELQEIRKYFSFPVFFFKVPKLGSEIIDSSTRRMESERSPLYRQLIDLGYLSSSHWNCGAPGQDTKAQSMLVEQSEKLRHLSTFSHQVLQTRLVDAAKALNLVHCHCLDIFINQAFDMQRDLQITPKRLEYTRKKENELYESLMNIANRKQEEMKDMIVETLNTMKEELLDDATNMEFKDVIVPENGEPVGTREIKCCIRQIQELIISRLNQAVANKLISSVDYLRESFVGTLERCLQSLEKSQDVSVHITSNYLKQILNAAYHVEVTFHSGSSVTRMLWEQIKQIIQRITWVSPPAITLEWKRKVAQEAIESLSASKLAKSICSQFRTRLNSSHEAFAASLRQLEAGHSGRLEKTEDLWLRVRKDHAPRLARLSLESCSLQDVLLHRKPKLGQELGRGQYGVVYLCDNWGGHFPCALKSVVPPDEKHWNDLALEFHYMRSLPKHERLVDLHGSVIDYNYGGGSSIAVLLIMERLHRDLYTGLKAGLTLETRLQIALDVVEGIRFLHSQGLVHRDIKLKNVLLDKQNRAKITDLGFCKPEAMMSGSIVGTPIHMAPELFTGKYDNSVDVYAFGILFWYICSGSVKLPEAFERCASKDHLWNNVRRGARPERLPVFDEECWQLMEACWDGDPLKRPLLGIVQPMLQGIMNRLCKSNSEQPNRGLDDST

[5] = biological target: T3, kinases (KINOMEscan panel) (Homo sapiens, UniProt Q8NG66); conditions: Published KINOMEscan; ref original PKIS2 published data; cited from earlier work
T3 sequence (Q8NG66 1-645): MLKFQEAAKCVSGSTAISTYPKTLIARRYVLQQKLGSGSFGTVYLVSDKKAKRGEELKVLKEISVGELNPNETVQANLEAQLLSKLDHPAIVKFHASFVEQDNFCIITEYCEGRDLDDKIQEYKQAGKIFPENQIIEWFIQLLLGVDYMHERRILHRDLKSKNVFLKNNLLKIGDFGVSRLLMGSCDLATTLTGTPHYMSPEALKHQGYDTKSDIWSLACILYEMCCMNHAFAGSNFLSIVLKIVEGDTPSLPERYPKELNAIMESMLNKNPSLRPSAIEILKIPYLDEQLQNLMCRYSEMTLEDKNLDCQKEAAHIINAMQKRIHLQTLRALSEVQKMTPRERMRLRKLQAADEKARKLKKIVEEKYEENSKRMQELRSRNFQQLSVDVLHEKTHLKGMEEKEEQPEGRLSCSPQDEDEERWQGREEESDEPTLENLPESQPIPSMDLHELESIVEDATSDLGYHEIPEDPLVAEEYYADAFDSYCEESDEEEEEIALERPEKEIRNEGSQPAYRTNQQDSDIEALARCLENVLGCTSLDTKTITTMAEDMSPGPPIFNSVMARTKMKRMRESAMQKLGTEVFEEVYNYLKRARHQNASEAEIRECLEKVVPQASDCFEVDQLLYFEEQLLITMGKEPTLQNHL

[6] = system: kinases (KINOMEscan panel); conditions: Published KINOMEscan, ref original PKIS2 published data, cited from earlier work

Sequence of kinases (KINOMEscan panel) (Homo sapiens, UniProt P08922) (P08922 28-2347): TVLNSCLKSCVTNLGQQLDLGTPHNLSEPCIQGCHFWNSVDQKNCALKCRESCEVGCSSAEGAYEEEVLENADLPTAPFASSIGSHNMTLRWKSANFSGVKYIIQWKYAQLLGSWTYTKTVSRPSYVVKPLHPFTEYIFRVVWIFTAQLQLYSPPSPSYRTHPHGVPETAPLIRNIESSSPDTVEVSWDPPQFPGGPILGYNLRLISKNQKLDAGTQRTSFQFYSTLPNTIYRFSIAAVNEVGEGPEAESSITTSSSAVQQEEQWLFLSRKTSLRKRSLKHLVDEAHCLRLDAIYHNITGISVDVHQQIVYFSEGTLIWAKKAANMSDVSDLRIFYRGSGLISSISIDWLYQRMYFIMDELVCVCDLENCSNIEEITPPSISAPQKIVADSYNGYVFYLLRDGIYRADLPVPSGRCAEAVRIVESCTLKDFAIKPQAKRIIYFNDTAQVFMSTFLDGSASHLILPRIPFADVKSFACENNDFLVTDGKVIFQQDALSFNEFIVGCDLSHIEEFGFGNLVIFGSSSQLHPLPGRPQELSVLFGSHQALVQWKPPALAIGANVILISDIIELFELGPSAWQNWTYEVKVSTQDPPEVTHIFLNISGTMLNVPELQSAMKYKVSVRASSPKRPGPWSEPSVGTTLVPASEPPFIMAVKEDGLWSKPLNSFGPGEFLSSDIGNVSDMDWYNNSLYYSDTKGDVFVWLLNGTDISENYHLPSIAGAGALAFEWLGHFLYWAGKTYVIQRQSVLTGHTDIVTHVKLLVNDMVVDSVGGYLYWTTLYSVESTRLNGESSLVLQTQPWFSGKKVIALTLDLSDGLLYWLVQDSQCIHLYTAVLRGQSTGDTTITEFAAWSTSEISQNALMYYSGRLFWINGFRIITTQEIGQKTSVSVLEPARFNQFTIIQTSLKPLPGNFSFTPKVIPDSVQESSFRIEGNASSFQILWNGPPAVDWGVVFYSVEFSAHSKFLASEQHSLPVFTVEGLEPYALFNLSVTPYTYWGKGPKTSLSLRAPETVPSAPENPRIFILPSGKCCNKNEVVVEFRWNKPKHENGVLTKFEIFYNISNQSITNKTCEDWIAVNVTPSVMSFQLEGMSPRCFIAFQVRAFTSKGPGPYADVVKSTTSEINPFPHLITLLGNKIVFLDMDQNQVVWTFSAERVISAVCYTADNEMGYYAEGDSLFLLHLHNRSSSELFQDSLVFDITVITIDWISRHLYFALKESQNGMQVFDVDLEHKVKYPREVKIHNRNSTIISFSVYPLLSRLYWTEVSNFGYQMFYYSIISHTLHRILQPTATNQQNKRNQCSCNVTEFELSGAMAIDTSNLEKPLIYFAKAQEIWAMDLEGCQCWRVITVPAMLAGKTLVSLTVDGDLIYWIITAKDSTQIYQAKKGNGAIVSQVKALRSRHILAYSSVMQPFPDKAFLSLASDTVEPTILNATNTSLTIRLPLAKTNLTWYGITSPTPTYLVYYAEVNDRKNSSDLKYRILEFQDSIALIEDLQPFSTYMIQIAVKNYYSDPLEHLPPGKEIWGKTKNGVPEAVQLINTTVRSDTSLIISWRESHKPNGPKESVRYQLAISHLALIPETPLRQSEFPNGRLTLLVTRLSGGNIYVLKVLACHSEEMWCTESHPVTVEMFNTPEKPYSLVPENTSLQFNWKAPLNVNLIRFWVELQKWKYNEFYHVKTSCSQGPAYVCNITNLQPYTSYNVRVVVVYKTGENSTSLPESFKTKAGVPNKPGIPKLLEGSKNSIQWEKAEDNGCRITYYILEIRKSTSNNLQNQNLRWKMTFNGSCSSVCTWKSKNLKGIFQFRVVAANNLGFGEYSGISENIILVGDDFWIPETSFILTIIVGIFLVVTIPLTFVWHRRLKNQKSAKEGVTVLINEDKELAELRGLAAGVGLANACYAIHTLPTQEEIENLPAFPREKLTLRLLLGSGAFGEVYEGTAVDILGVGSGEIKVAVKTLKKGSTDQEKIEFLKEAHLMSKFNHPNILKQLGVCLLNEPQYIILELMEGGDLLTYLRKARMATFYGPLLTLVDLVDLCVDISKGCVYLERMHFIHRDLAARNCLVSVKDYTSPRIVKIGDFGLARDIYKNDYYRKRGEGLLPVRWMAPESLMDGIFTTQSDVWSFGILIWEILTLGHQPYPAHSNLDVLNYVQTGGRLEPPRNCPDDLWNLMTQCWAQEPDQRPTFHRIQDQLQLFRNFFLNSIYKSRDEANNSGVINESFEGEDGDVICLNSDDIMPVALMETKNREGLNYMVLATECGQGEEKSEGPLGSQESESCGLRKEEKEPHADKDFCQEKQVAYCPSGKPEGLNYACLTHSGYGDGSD
Sequence of kinases (KINOMEscan panel) (Homo sapiens, UniProt Q15746) (Q15746 whole entry): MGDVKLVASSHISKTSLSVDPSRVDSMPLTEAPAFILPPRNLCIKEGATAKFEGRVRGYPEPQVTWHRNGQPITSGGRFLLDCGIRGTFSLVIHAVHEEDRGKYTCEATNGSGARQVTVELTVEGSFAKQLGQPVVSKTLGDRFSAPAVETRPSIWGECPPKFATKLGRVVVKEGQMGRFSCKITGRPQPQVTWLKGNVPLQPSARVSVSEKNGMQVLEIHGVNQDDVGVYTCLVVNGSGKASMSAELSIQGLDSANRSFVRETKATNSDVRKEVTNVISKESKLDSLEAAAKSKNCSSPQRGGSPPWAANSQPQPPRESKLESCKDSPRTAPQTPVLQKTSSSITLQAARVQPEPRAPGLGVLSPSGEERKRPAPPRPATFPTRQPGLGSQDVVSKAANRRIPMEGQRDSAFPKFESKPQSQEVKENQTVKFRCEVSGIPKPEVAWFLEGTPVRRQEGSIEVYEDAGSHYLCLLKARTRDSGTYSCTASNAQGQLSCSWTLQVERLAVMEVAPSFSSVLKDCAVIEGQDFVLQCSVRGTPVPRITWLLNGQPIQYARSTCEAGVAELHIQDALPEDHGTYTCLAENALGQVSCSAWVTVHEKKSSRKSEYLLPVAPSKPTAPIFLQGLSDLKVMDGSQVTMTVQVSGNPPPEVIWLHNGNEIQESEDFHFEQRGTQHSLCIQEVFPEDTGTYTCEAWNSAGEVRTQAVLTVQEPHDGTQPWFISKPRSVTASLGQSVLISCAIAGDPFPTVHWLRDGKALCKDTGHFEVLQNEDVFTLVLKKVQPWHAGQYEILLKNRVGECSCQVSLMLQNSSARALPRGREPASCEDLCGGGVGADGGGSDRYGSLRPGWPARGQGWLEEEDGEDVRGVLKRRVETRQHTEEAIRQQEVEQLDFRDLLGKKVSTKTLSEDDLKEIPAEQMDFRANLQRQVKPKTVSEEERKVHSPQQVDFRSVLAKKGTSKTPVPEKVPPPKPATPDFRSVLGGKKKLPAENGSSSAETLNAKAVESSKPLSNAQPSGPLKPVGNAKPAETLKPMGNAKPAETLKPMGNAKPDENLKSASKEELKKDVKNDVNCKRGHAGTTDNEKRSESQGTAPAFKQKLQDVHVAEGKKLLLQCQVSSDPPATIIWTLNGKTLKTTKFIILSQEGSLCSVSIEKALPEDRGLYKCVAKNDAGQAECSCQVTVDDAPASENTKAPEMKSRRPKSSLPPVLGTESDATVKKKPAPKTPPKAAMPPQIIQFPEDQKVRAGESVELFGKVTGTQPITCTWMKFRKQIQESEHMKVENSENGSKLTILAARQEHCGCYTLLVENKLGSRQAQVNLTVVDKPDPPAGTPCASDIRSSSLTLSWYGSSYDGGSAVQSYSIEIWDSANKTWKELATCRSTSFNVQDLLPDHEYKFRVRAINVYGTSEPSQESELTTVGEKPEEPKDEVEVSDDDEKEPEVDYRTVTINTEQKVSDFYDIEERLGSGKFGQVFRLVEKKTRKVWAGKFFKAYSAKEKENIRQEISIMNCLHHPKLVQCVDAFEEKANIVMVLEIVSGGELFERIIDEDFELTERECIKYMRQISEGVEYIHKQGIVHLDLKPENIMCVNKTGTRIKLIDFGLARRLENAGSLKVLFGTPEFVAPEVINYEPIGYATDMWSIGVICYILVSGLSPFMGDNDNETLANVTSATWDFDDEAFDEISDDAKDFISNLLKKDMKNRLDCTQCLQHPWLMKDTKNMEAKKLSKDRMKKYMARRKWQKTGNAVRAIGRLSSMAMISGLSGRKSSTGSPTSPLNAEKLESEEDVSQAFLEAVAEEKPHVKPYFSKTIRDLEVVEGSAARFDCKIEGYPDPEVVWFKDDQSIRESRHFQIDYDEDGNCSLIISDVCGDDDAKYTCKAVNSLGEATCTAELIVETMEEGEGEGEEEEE

In the case of Cc1cccc(-c2nc(Nc3ccncc3)c3ccccc3n2)n1 [NK215], the “KINOMEscan ROS1” value [1] is listed as 0, the “KINOMEscan DMPK” value [2] is listed as 2 and the “KINOMEscan MYLK” value [3] is listed as 12. The “KINOMEscan DSTYK” value [4] was 0, the “KINOMEscan NEK11” value [5] was 0 and the “KINOMEscan PRKAA2” value [6] was 0. For the same compound, the “KINOMEscan PRKAA2” value ([6]; kinase PRKAA2) was 12.
